In a melting point compilation (Tetko et al.; mined from patent text by program, amines drawn as free bases though some values may be those of a salt):

`CCC(CC)c1ccc(Cl)c2nc(Nc3cnc(OC)cc3C)n(CCCCO)c12` showed a melting point of 146 to 147 °C. With `Cc1ccccc1C(=O)Nn1cc(-c2ccccc2)nc1S` the melting point was 159 to 160 °C. `Cc1ccc(Cc2cnc(NCCCN(Cc3cccc(Cl)c3)c3ccccn3)[nH]c2=O)cn1` showed a melting point of 100 to 104 °C. With `CCOC(=O)c1cc(=O)c2c(OCC(O)CSC)cccc2o1` (stereo unspecified) the melting point was 69 to 71 °C. `CNc1cc(C)nc2c(S(=O)(=O)c3ccccc3)c(SC)nn12` gave a melting point of over 230 °C. `COC(=O)[C@H]1[C@@H]2CC[C@@](NC(=O)OC(C)(C)C)(C(=O)O)[C@@H]21` showed a melting point of 164 to 165 °C. In the case of `COc1cc2c(c(C(C)(C)C)c1)OC(=O)C2=C1C(=O)Nc2c(Br)cc(Br)cc21`, the melting point is reported as 303 to 314 °C. In the case of `COc1cc(C(C)=O)ccc1OCCCN1CCN(c2csc3cc(F)ccc23)CC1`, the melting point is reported as 172 to 174 °C. In the case of `CC(C)=Cc1cn(-c2c(Cl)cc(C(F)(F)F)cc2Cl)nc1C#N`, the melting point is reported as 72 to 74 °C. `CCS(=O)(=O)Nc1cccc(COc2cc(F)cc(Nc3ccc(I)cc3F)c2C(N)=O)c1` gave a melting point of 170 °C. With `Nc1sc2c(c1C(=O)c1ccc3c(c1)OCO3)CCN(C(=O)c1ccccc1)C2` the melting point was 211 to 212 °C. `CC(C)(C)c1ccc(NC(=O)Nc2ccc(Oc3cc(NCc4ccccc4)ncn3)cc2)cc1` showed a melting point of 118 to 120 °C. `Cc1ccccc1C=C1CSCC(=Cc2ccccc2C)C1=O` showed a melting point of 123 to 125 °C. `CCOC(=O)C(Br)C(=O)Nc1ccc(Cl)cc1` (stereo unspecified) gave a melting point of 117 to 119 °C. Molecule `CC(C)(C)OC(=O)N[C@H]1CC[C@H](CCN2CCN(c3cc(C#N)cc(C(F)(F)F)c3)CC2)CC1` has a melting point of 139 to 140 °C. `O=C(OCc1ccccc1)C1Cc2ccsc2CN1Cc1ccccc1` (stereo unspecified) showed a melting point of 135 to 140 °C. `C#CCn1c(-c2ccccc2)nc(CC)c(CC(N)=O)c1=O` showed a melting point of 196 to 198 °C. With `NC(=O)c1ncn2c1CN(C(=O)N1CCOCC1)c1ccccc1-2` the melting point was 220 to 221 °C. `CCOC(=O)C(C(=O)CC)C(=O)OCC` gave a melting point of 89 to 93 °C. `O=c1[nH]c2cc(F)ccc2n(C2CCCCC2)c1=O` showed a melting point of 290 °C. In the case of `CCC1C(=O)Oc2c(Oc3ccccc3Cl)cccc21` (stereo unspecified), the melting point is reported as 78 to 79 °C. `CCOC(=O)CCn1c(=O)[nH]c2ccccc2c1=O` gave a melting point of 192 to 194 °C. Work on `CCOC(=O)c1cn(C2CC2)c2c(C#N)c(Cl)c(F)cc2c1=O` yielded a melting point of 162 to 165 °C. Work on `CC(C)(Br)C(=O)NCc1ccccc1` yielded a melting point of 73.4 to 75.5 °C. Molecule `CCOC(=O)C1=C(C)Nc2nc(N3CCOCC3)nc(N3CCOCC3)c2C1c1cccnc1Cl` (stereo unspecified) has a melting point of 185 °C. In the case of `COc1ccc(CN2C(=O)C(C)(c3cc(N(C)C(=O)CN(C)C)ccc3Cl)c3cc(Cl)ccc32)c(OC)c1` (stereo unspecified), the melting point is reported as 104 °C. `C=C(C)C(=O)NCc1cc(C)c(O)c(C)c1` showed a melting point of 136 to 138 °C. With `CC(=O)c1ccc2c(c1)C1(c3ccccc3-c3ccccc31)c1ccccc1-2` the melting point was 225 °C. For `CN(C)CC(O)Cn1c2ccccc2c2c3c(c4c5ccccc5n(C)c4c21)C(=O)N(C)C3=O` (stereo unspecified), the melting point was 198 to 203 °C. `OC1(CNc2ccnc3cc(Cl)ccc23)CCCCC1` gave a melting point of 205 to 207 °C. `COc1cc(NC2=NCC3(CN4CCC3CC4)O2)ncn1` (stereo unspecified) showed a melting point of 80 to 85 °C. Work on `CC(=O)N1CCN(C(=O)OC2C3=C(SCCS3)C(=O)N2c2ccc3ccc(Cl)nc3n2)CC1` (stereo unspecified) yielded a melting point of 271 °C. In the case of `COCc1cccc2c1OCCC(C(=O)OC)=C2`, the melting point is reported as 76 to 78 °C. For `C=CCOc1ccc2c(C)c(C(=O)C=Cc3cc(OC)c(OC)c(OC)c3)c(=O)oc2c1`, the melting point was 138 to 140 °C. `CN(C=O)c1ccc(C2OC(C)(C)N=C2c2ccccc2)cc1` (stereo unspecified) gave a melting point of 104 to 105 °C. `CCc1nc2c(Cl)nc(C)cc2n1Cc1ccccc1` gave a melting point of 140 to 141 °C. Work on `CC(O)C(C)C1=C2C(C)(C)C3CCC2(C3)C(C)(C)CC1` (stereo unspecified) yielded a melting point of 119 to 121 °C. Work on `NC(=O)NCc1ccc(CNC(=O)[C@@H](CCCNC(N)=N[N+](=O)[O-])NC(=O)Cc2ccc(O)cc2)cc1` yielded a melting point of 168 to 170 °C. With `O=C(O)c1ccc(CCC(=O)c2ccccc2)cc1` the melting point was 145 to 147 °C. With `Cc1ccc(I)c(CC(=O)OC(C)C)c1` the melting point was 48 to 50 °C. Work on `Cc1ccc(CCc2ccccc2Br)c(NC=O)c1` yielded a melting point of 167 to 169 °C. `COC(=O)C1CC(O)CN1C(=O)c1cc(OC)c(OC)c(OC)c1` (stereo unspecified) gave a melting point of 126 °C. `CCn1c2ccccc2n2c(=O)c(C(=O)NC)cnc12` gave a melting point of 178 to 180 °C. Molecule `Cn1c(C=Cc2ccccc2)cnc1[N+](=O)[O-]` has a melting point of 170 to 180 °C. Molecule `CCn1c(-c2ccc(-n3ccnc3)cc2)cnc1[C@H](Cc1ccccn1)N(C=O)c1cc2cc(C(F)(F)F)ccc2o1` has a melting point of 85 to 89 °C. `CCOC(=O)Nc1ccc(Cl)c(N)n1` showed a melting point of 66 to 70 °C. With `C=CCN(CC(=O)OC(C)(C)C)c1c(N)c(=O)c1=O` the melting point was 175 to 176 °C. In the case of `C=C(C(=O)c1ccc(OC)c(Cl)c1Cl)C(C)C`, the melting point is reported as 46 to 51 °C. In the case of `O=C(O)CN1C(=O)c2cccc3c(C(=O)c4ccccc4)ccc(c23)C1=O`, the melting point is reported as 310 to 312 °C. With `O=[N+]([O-])c1cc(Cl)c(Cl)cc1-n1cccc1` the melting point was 69.5 to 70.5 °C. `CC(C)n1nc(-c2sc(NC(=O)c3cc(C(F)(F)F)cc(C(F)(F)F)c3)nc2-c2ccccc2)ccc1=O` gave a melting point of 207 to 208 °C. `COc1cnc(C#N)c(C)c1` showed a melting point of 80 to 81 °C. `CN1CCC(OC2c3ccccc3CCn3c2nc(-c2ccc(C(=O)OC(C)(C)C)cc2)c3C#N)CC1` (stereo unspecified) gave a melting point of 95 °C. Molecule `CCCc1c(C(=O)O)cnc(C(F)(F)F)c1C(=O)O` has a melting point of 236 °C. In the case of `c1ccc(CN2CCC3(CC2)OCc2ccccc23)cc1`, the melting point is reported as 67 to 68.5 °C. In the case of `CN(C)c1ccc(S(N)(=O)=O)cn1`, the melting point is reported as 133 to 138 °C. With `CCCCCCCc1cc2cn(C(CC)CC)c(=O)nc2o1` the melting point was 128 to 130 °C. With `COc1ccc2oc(C)c(Cc3cccc(NS(=O)(=O)C(F)(F)F)c3)c(=O)c2c1` the melting point was 172 to 174 °C. Molecule `CC(C)c1[nH][nH]c(=O)c1Cc1ccc2ccccc2c1` has a melting point of 143 to 145 °C. `COC(=O)CCc1ccc(OCCSCCO)cc1` gave a melting point of 47 to 48 °C. Molecule `OCc1cc(I)ccc1F` has a melting point of 42 °C. `COc1ccc(C2CCCN(C(=O)C(F)(F)F)C2)cc1N` (stereo unspecified) gave a melting point of 88 °C. In the case of `Cn1cc(C(=O)NCc2ccc(Cl)cc2)c(=O)c2cc(CCCO)sc21`, the melting point is reported as 197 to 198 °C. With `CC(=O)NC[C@H]1CN(c2ccc(N3CCC(n4nnc(N5CCN(C)CC5)n4)CC3)c(F)c2)C(=O)O1` the melting point was 174 to 176 °C. `CCCCc1nn2c(-c3ccccc3)cnc2n1Cc1ccc(-c2ccccc2-c2nnn[nH]2)cc1` showed a melting point of over 70 °C. `CCCCCCCCCCSc1ccc2c3c(cccc13)C(=O)N(CC(=O)O)C2=O` gave a melting point of 137 to 140 °C. `CCCCCCSC[C@H](N[C@@H](C)C(=O)N1CCC[C@H]1C(=O)O)C(=O)O` showed a melting point of 109 to 112 °C. `O=C(O)c1ccc2[nH]c(=O)n(CCCCN3CC=C(c4ccccc4)CC3)c(=O)c2c1` showed a melting point of 237 °C. For `N#CCc1cc(O)cc2nc(-c3ccc(O)cc3)oc12`, the melting point was 170 to 180 °C. For `CC12CCC3c4ccc(OCc5ccccc5)c([N+](=O)[O-])c4CCC3C1CCC2=O` (stereo unspecified), the melting point was 198 to 199 °C. Work on `CCOC(=O)C(C(=O)OCC)N1CC(N2C(=O)c3ccccc3C2=O)C1=O` (stereo unspecified) yielded a melting point of 149 to 150 °C. In the case of `O=C(O)Cc1ccc(C(=O)c2cccc(C(F)(F)F)c2)s1`, the melting point is reported as 120 °C. Work on `CCS(=O)(=O)N=CNCc1cccc(-c2csc(N=C(N)N)n2)n1` yielded a melting point of 201 °C. Work on `CCNc1nc(Nc2ccccc2)ncc1C=O` yielded a melting point of 155 to 157 °C. Work on `O=C(Nc1cccc(S(=O)(=O)NCc2ccccc2)c1)c1cnn2c(C(F)F)cc(-c3ccc(C(F)(F)F)cc3)nc12` yielded a melting point of 230 °C. With `CCC(=O)Nc1c(C)c(C)c2c(c1C)C(c1ccc(C(C)C)cc1)CO2` (stereo unspecified) the melting point was 164 to 165 °C. `C[C@@H]1[C@@H](C(=O)Cc2ccccc2)C(=O)N1OCc1ccccc1` showed a melting point of 97 to 99 °C. With `CCCC(=O)c1cc2nc(C(=O)OCC)n(C)c2cc1C` the melting point was 106 to 108 °C. Molecule `CC(=O)Nc1ccc(/C(=C/N2CCOCC2)C(=S)N2CCOCC2)cc1` has a melting point of 145 to 147 °C. `CC(=O)c1ccc(-c2ccccc2)c(F)c1` showed a melting point of 97 to 97.5 °C. With `O=C(CCCc1ccccc1)N[C@H](Cc1ccc(F)cc1)[C@@H](O)c1ccc(F)cc1` (racemic) the melting point was 147 to 148 °C. With `C#CCN(Cc1cc2c(=O)n(C)c(COS(C)(=O)=O)nc2cc1Cl)c1ccc(C(=O)OC(C)(C)C)cc1` the melting point was 204 to 205 °C. With `Cn1c2ccccc2c2ccc3c(c21)C(=O)OC3=O` the melting point was over 300 °C. Molecule `COc1cccc2c1C(C)C(=O)N2C` (stereo unspecified) has a melting point of 73 to 74 °C. `O=C1COCC(=O)NCCOCCN1` showed a melting point of 180 to 181 °C. With `COc1cccc(OC)c1C(=O)NC(=S)NNC(=O)c1cnc2ccccc2c1` the melting point was 242 to 243 °C. `O=C(O)C1(COc2ccc(Br)cc2)COC1` showed a melting point of 122 to 124 °C. For `CCc1ccc(C(=O)C2=C(O)C(=O)N(c3ccc(C)nn3)C2c2ccc(OC(F)(F)F)cc2)cc1` (stereo unspecified), the melting point was 263 to 267 °C. Work on `Clc1nccc(Oc2ccc3[nH]ccc3c2)n1` yielded a melting point of 169 to 176 °C. `CCOC(=O)C1=C(C)NC(CO)=C(C(=O)OCC)C1c1ccccc1[N+](=O)[O-]` (stereo unspecified) gave a melting point of 112 to 113 °C. Work on `CS(=O)(=O)C1CCCCC1Br` (stereo unspecified) yielded a melting point of 45 to 48 °C. `COC(=O)COC(=O)Cc1cc(Oc2ccc(C(F)(F)F)cc2Cl)ccc1[N+](=O)[O-]` showed a melting point of 79.2 to 80.1 °C. With `O=c1[nH]c2ccccc2n1CCCN1CCN(c2n[nH]c3cc(F)ccc23)CC1` the melting point was 236 to 238 °C. Molecule `CCN(CC)P(N)(=O)N(c1ccc(S(=O)(=O)c2ccccc2)cc1)c1ccc(S(=O)(=O)c2ccccc2)cc1` (stereo unspecified) has a melting point of 115 to 130 °C. With `CC(C)c1n[nH]c2c(NCc3ccccc3)ncnc12` the melting point was 153 to 154 °C. Work on `CC(C)Oc1cc(-n2c(=O)c(F)c(CF)n(C)c2=O)c(F)cc1Cl` yielded a melting point of 79 to 81 °C. In the case of `COC(=O)COc1cccnc1Br`, the melting point is reported as 63 to 64 °C. Work on `CC(=O)OCC1CCc2cc3ccccc3n2CC1` (stereo unspecified) yielded a melting point of 77 to 79 °C. With `Cc1cc(C2(C(F)(F)F)CC(c3ccc(S(C)=O)cc3)=NO2)ccc1NC(=O)c1cccc(I)c1C(=O)NC(C)C` (stereo unspecified) the melting point was 134 to 152 °C. With `CCOC(=O)c1c(Oc2ccc(Cl)cc2[N+](=O)[O-])c2ccccc2n1C` the melting point was 133 to 134 °C. `CCOC(=O)c1c(-c2ccccc2C)c2cc(Cl)ccc2[nH]c1=O` showed a melting point of 215 to 216 °C.
